The values that follow come from patent publication US20250388593A1 (MITSUBISHI TANABE PHARMA CORPORATION, priority 2023, published 2025).

As usually defined, the Kd is the constant that tells how readily two partners part at equilibrium. High values mean lower affinity, low ones higher affinity.

Structures are written as SMILES.

Sequence of CRBN truncate (318-426) (Q96SW2 318-426): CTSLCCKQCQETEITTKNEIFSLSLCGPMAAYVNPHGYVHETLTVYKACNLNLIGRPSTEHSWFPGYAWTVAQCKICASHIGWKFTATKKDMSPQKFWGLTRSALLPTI

In this test the target is CRBN truncate (318-426) (Homo sapiens (Human), UniProt Q96SW2). Briefly: Measurement of molecular interactions using surface plasmon resonance (SPR), Biacore T200. Format: binding. The conditions noted are these: 25° C., immobilized CRBN truncate, upper limit of measurement 200 μM. Summed up:
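C-terminally Avi-tagged CRBN (318-426) captured on a streptavidin SA chip on a Biacore T200. Running buffer 10 mM HEPES pH 7.5, 150 mM NaCl, 1 mM TCEP, 0.005% Tween 20, 2% DMSO; 60 s contact, 120 s dissociation.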
(SPR reads the build-up and loss of mass on a sensor chip optically.)
`CC(=O)Nc1cccc(C2CCCC(=O)NC2=O)c1` (stereo not drawn) [Example 71, N-[3-(2,7-Dioxoazepan-3-yl)phenyl]acetamide]: the Kd is ≥ 100 µM.
The same measure for `Cn1c(=O)n(C2CCCC(=O)NC2=O)c2cccc(-c3ccncc3)c21` (stereo not drawn) [Example 221, 3-[3-Methyl-2-oxo-4-(4-pyridyl)benzimidazol-1-yl]azepane-2,7-dione]: 50 to 100 µM; for `NC(=O)c1nn(-c2ccc(C(=O)NCCOCCOCCNC(=O)c3ccc(N4CCC5(CCCC(=O)NC5=O)CC4=O)nc3)cc2)cc1NC(=O)c1coc(-c2ccnc(NCC3CC3)c2)n1` (stereo not drawn) [Example 143, N-[3-Carbamoyl-1-[4-[2-[2-[2-[[6-(4,7,9-trioxo-3,8-diazaspiro [5.6]dodecan-3-yl)pyridine-3-carbonyl]amino]ethoxy]ethoxy]ethylcarbamoyl]phenyl]pyrazol-4-yl]-2-[2-(cyclopropylmethylamino)-4-pyridyl]oxazole-4-carboxamide]: < 50 µM.
For the molecule `COc1ccc2nnn(C3CCCC(=O)NC3=O)c2c1` (stereo not drawn) [Example 254, 3-(6-Methoxybenzotriazol-1-yl)azepane-2,7-dione], the Kd was ≥ 100 µM.
For `N#Cc1ccccc1N1CCC2(CCCC(=O)NC2=O)C1` (stereo not drawn) [Example 191] the value was ≥ 100 µM.
For `CC(C)(C)OC(=O)NCCOCCOCCn1c(=O)n(C2CCCC(=O)NC2=O)c2ccccc21` (stereo not drawn) [Example 199, tert-Butyl N-[2-[2-[2-[3-(2,7-dioxoazepan-3-yl)-2-oxobenzimidazol-1-yl]ethoxy]ethoxy]ethyl]carbamate] the value was ≥ 100 µM; for `O=C1CCCC(n2cc(CCCCCCCC(=O)OCc3ccccc3)nn2)C(=O)N1` (stereo not drawn) [Example 148, Benzyl 8-[1-(2,7-dioxoazepan-3-yl)triazol-4-yl]octanoate], 50 to 100 µM.
For `Cc1sc2c(c1C)C(c1ccc(Cl)cc1)=N[C@@H](CC(=O)NCCCCCCCNC(=O)CN1CCC3(CCCC(=O)NC3=O)CC1=O)c1nnc(C)n1-2` (stereo partly drawn) [Example 345, 2-[(9S)-7-(4-chlorophenyl)-4,5,13-trimethyl-3-thia-1,8,11,12-tetraazatricyclo[8.3.0.02,6]trideca-2(6),4,7,10,12-pentaen-9-yl]-N-[7-[[2-(4,7,9-trioxo-3,8-diazaspiro[5.6]dodecan-3-yl)acetyl]amino]heptyl]acetamide] the value was 50 to 100 µM; for `CC(C)(C)OC(=O)NCCCCCCc1ccc(-c2cn(C3CCCC(=O)NC3=O)nn2)cc1` (stereo not drawn) [Example 150, tert-Butyl N-[6-[4-[1-(2,7-dioxoazepan-3-yl)triazol-4-yl]phenyl]hexyl]carbamate], ≥ 100 µM.
For the molecule `O=C1CCCC(c2cccc([N+](=O)[O-])c2)C(=O)N1` (stereo not drawn) [Example 62, 3-(3-Nitrophenyl) azepane-2,7-dione], the Kd was ≥ 100 µM.
With `COc1cccc2c1ccc(=O)n2C1CCCC(=O)NC1=O` (stereo not drawn) [Example 258, 3-(5-Methoxy-2-oxoquinolin-1-yl)azepane-2,7-dione], the Kd is ≥ 100 µM.
The same measure for `O=C1CCCC2(CCN(c3ncc(Br)cn3)C2)C(=O)N1` (stereo not drawn) [Example 127, 2-(5-Bromopyrimidin-2-yl)-2,7-diazaspiro [4.6]undecane-6,8-dione]: ≥ 100 µM; for `COc1ccc2nc(N3CC4(CC(=O)N(C5CCC(=O)NC5=O)C4=O)C3)sc2c1` (stereo not drawn) [Example 238, 6-(2,6-Dioxopiperidin-3-yl)-2-(6-methoxy-1,3-benzothiazol-2-yl)-2,6-diazaspiro[3.4]octane-5,7-dione]: < 50 µM.
For `CC(C)(C)OC(=O)N1CCN(C(=O)c2ccc(N3CCC4(CCCC(=O)NC4=O)C3)nc2)CC1` (stereo not drawn) [Example 97, tert-Butyl 4-[6-(6,8-dioxo-2,7-diazaspiro [4.6]undecan-2-yl)pyridine-3-carbonyl]piperazine-1-carboxylate] the value was ≥ 100 µM.
As to `CC(C)(C)OC(=O)c1cnc(N2CCC3(CCCC(=O)NC3=O)C2)cn1` (stereo not drawn) [Example 35, tert-Butyl 5-(6,8-dioxo-2,7-diazaspiro[4.6]undecan-2-yl)pyrazine-2-carboxylate], the dissociation constant (Kd) is ≥ 100 µM.
For `COc1ccc2sc(N3CCC4(CCCC(=O)NC4=O)C3)nc2c1` (stereo not drawn) [Example 188, 2-(5-Methoxy-1,3-benzothiazol-2-yl)-2,7-diazaspiro[4.6]undecane-6,8-dione] the value was ≥ 100 µM; for `CC(C)(C)OC(=O)Nc1ccc(-c2cn(C3CCCC(=O)NC3=O)nn2)cc1` (stereo not drawn) [Example 3, tert-Butyl N-[4-[1-(2,7-dioxoazepan-3-yl)triazol-4-yl]phenyl]carbamate], ≥ 100 µM.
The same measure for `CC(C)(C)OC(=O)COc1ccccc1-c1cn(C2CCCC(=O)NC2=O)nn1` (stereo not drawn) [Example 149, tert-Butyl 2-[2-[1-(2,7-dioxoazepan-3-yl)triazol-4-yl]phenoxy]acetate]: ≥ 100 µM; for `Cn1c(=O)n(C2CCCC(=O)NC2=O)c2ccc(/C=C/C(=O)OC(C)(C)C)cc21` (stereo not drawn) [Example 140, tert-Butyl (E)-3-[1-(2,7-oxazepan-3-yl)-3-methyl-2-oxo-benzimidazol-5-yl]-2-propenoate]: ≥ 100 µM.
For `Cc1cc([N+](=O)[O-])ccc1N1CCC2(CCCC(=O)NC2=O)C1` (stereo not drawn) [Example 82, 2-(2-Methyl-4-nitrophenyl)-2,7-diazaspiro[4.6]undecane-6,8-dione] the value was 50 to 100 µM; for `CN(c1ccc([N+](=O)[O-])cc1)C1CCCC(=O)NC1=O` (stereo not drawn) [Example 120, 3-(N-Methyl-4-nitro-anilino) azepane-2,7-dione], ≥ 100 µM; for `O=C1CCOC(c2ccccc2)C(=O)N1` (stereo not drawn) [Example 18, 2-Phenyl-1,4-oxazepane-3,5-dione], ≥ 100 µM.
With `CN(C1CCCC(=O)NC1=O)S(=O)(=O)c1ccc(CCCCCCNC(=O)OC(C)(C)C)cc1` (stereo not drawn) [Example 271, tert-Butyl N-[6-[4-[(2,7-dioxoazepan-3-yl)-methylsulfamoyl]phenyl]hexyl]carbamate], the Kd was ≥ 100 µM.
Consider `Cc1sc2c(c1C)C(c1ccc(Cl)cc1)=N[C@@H](CC(=O)NCCCCCCCCNC(=O)CN1C(=O)[C@@](C)(N3CCCC(=O)NC3=O)c3ccccc31)c1nnc(C)n1-2` [Example 352, 2-[(9S)-7-(4-Chlorophenyl)-4,5,13-trimethyl-3-thia-1,8,11,12-tetraazatricyclo[8.3.0.02,6]trideca-2(6),4,7,10,12-pentaen-9-yl]-N-[8-[[2-[3-(2,4-dioxo-1,3-diazepan-1-yl)-3-methyl-2-oxoindol-1-yl]acetyl]amino]octyl]acetamide], for which the Kd is < 50 µM.
Take `CC(C)(C)OC(=O)N1CCC(c2cn(C3CCCC(=O)NC3=O)nn2)CC1` (stereo not drawn) [Example 2, tert-Butyl 4-[1-(2,7-dioxoazepan-3-yl)triazol-4-yl]piperidine-1-carboxylate]: the dissociation constant Kd was ≥ 100 µM.
For `Cc1sc2c(c1C)C(c1ccc(Cl)cc1)=N[C@@H](CC(=O)NCCCCCCCCNC(=O)CCc1ccc3c(=O)n(C4CCCC(=O)NC4=O)c(=O)n(C)c3c1)c1nnc(C)n1-2` (stereo partly drawn) [Example 344, N-[8-[[2-[(9S)-7-(4-chlorophenyl)-4,5,13-trimethyl-3-thia-1,8,11,12-tetraazatricyclo[8.3.0.02,6]trideca-2(6),4,7,10,12-pentaen-9-yl]acetyl]amino]octyl]-3-[3-(2,7-dioxoazepan-3-yl)-1-methyl-2,4-dioxo-quinazolin-7-yl]propanamide] the value was < 50 µM.
On to `Cc1sc2c(c1C)C(c1ccc(Cl)cc1)=N[C@@H](CC(=O)NCCCCCCCCNC(=O)c1ccc3nc(N4CCC5(CCCC(=O)NC5=O)C4)sc3c1)c1nnc(C)n1-2` (stereo partly drawn) [Example 329, N-[8-[[2-[(9S)-7-(4-chlorophenyl)-4,5,13-trimethyl-3-thia-1,8,11,12-tetraazatricyclo[8.3.0.02,6]trideca-2(6),4,7,10,12-pentaen-9-yl]acetyl]amino]octyl]-2-(6,8-dioxo-2,7-diazaspiro[4.6]undecan-2-yl)-1,3-benzothiazole-6-carboxamide], for which the dissociation constant Kd was < 50 µM.
The same measure for `CC(C)(C)OC(=O)N1CCc2c(ncnc2N2CC3(CC(=O)N(C4CCC(=O)NC4=O)C3=O)C2)C1` (stereo not drawn) [Example 242, tert-Butyl 4-[6-(2,6-dioxo-3-piperidyl)-5,7-dioxo-2,6-diazaspiro[3.4]octan-2-yl]-6,8-dihydro-5H-pyrido[3,4-d]pyrimidine-7-carboxylate]: ≥ 100 µM.
On to `Nc1ccccc1OC1CCCC(=O)NC1=O` (stereo not drawn) [Example 66-2, 3-(2-Aminophenoxy) azepane-2,7-dione], for which the Kd was ≥ 100 µM.
On to `CNC(=O)c1ccc(N2CCC3(CCCC(=O)NC3=O)C2)nc1` (stereo not drawn) [Example 96, 6-(6,8-Dioxo-2,7-diazaspiro [4.6]undecan-2-yl)-N-methylpyridine-3-carboxamide], for which the Kd is ≥ 100 µM.
The same measure for `CC(C)(C)OC(=O)CCc1ccc2c(c1)oc(=O)n2C1CCCC(=O)NC1=O` (stereo not drawn) [Example 260, tert-Butyl 3-[3-(2,7-dioxoazepan-3-yl)-2-oxo-1,3-benzoxazol-6-yl]propanoate]: 50 to 100 µM; for `O=C1CCCC(Oc2ccc(Br)cc2)C(=O)N1` (stereo not drawn) [Example 267, 3-(4-Bromophenoxy) azepane-2,7-dione]: ≥ 100 µM; for `Nc1ccc(C(=O)N2CCC3(CCCC(=O)NC3=O)C2)cc1` (stereo not drawn) [Example 155, 2-(4-Aminobenzoyl)-2,7-diazaspiro[4.6]undecane-6,8-dione]: ≥ 100 µM.
For `Cn1c(=O)n(C2CCCC(=O)NC2=O)c2ccc(C3CCN(C(=O)OC(C)(C)C)CC3)cc21` (stereo not drawn) [Example 218, tert-Butyl 4-[1-(2,7-dioxoazepan-3-yl)-3-methyl-2-oxobenzimidazol-5-yl]piperidine-1-carboxylate] the value was 50 to 100 µM.
The same measure for `O=C1CCCC(C(=O)Nc2ccc(F)cc2)C(=O)N1` (stereo not drawn) [Example 28, N-(4-Fluorophenyl)-2,7-dioxoazepane-3-carboxamide]: ≥ 100 µM.
The molecule `CC(C)(C)OC(=O)c1ccc(CN2CCC3(CCCC(=O)NC3=O)CC2=O)cc1` (stereo not drawn) [Example 111, tert-Butyl 4-[(4,7,9-trioxo-3,8-diazaspiro [5.6]dodecan-3-yl)methyl]benzoate] came in with a Kd of 50 to 100 µM.
